Assay results taken from ChEMBL document CHEMBL1649553, “Characterization of ermA in macrolide-susceptible strains of methicillin-resistant Staphylococcus aureus” (2009).
Converted amounts (≈) assume the structure as drawn.

Tested on: Staphylococcus aureus
Test: Antibacterial activity against methicillin-resistant Staphylococcus aureus
Type: functional

Row | SMILES | MIC [µg/mL]
1 | CC[C@H]1OC(=O)[C@H](C)[C@@H](O[C@H]2C[C@@](C)(OC)[C@@H](O)[C@H](C)O2)[C@H](C)[C@@H](O[C@@H]2O[C@H](C)C[C@H](N(C)C)[C@H]2O)[C@](C)(O)C[C@@H](C)C(=O)[C@H](C)[C@@H](O)[C@]1(C)O [ERYTHROMYCIN] | 0.25 (≈ 0.341 µM)
2 | CCC[C@@H]1C[C@@H](C(=O)N[C@@H]([C@H]2O[C@H](SC)[C@H](O)[C@@H](O)[C@H]2O)[C@H](C)Cl)N(C)C1 [CLINDAMYCIN] | 0.5 (≈ 1.18 µM)
